Measurements: patent publication US8354436B2 (4SC Discovery GmbH, priority 2011, dated 2013)
Where two headings read alike, the source gives them in different places.

Key:
Assay type in all cases: cell-based
Conditions in all cases: 48 hours
[1] = system: IL-17FF; assay: IL-17FF production by PHA-stimulated human PBMC (human IL-17F ELI-Pair)
Summary of the method: (§1)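 PBMC from healthy donors, 1×10^5/well, 2 μg/ml PHA + compound, 48 h. Supernatant cytokine by Luminex bead assay or ELISA as listed. Screen at 10/1/0.1/0.01 μM; IC50 via semilog titration.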

[2] = system: PBMC from healthy human donors; assay: T cell proliferation assay (PHA-stimulated human PBMC, BrdU ELISA)
Summary of the method: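 Proliferation was quantified by BrdU ELISA 48 hours after starting culture of 1×10⁵ human PBMC per well with test compound and 2 μg/ml phytohaemagglutinin. Cells came from healthy donors via Ficoll separation and were kept in RPMI1640 with 10% dialysed heat-inactivated FCS.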

[3] = system: IFN-γ; assay: IFN-γ production by PHA-stimulated human PBMC (OptEIA human IFN-g ELISA)
Summary of the method: as §1

[4] = PHA-stimulated human PBMC, column B, read-out: IC50 (IL-17FF)
[5] = PHA-stimulated human PBMC, column D, read-out: IC50 (Tcell proliferation)
[6] = PHA-stimulated human PBMC, column C, read-out: IC50 (IFNγ)
[7] = human PBMC, 2 μg/ml PHA, read-out: B: IC50 (IL-17FF)
[8] = human PBMC, 2 μg/ml PHA, read-out: D: IC50 (Tcell proliferation)
[9] = human PBMC, 2 μg/ml PHA, read-out: C: IC50 (IFNγ)

| IC50 [1, 4] | IC50 [3, 6] | IC50 [1, 7] | IC50 [3, 9] | SMILES | IC50 [2, 5] | IC50 [2, 8] |
| --- | --- | --- | --- | --- | --- | --- |
| 1000 to 10000 nM | 1000 to 10000 nM | – | – | CC(C)OC(=O)c1c(-c2c(F)cccc2Cl)noc1-c1cnn(-c2ccccc2Cl)c1C(F)(F)F [IB-60] | 1000 to 10000 nM | – |
| 100 to 1000 nM | 100 to 1000 nM | – | – | CCOC(=O)c1c(-c2c(F)cccc2Cl)noc1-c1cnn(-c2ccccc2Br)c1C(F)(F)F [IB-72, ethyl 5-(1-(2-bromophenyl)-5-(trifluoromethyl)-1H-pyrazol-4-yl)-3-(2-chloro-6-fluorophenyl)isoxazole-4-carboxylate] | 100 to 1000 nM | – |
| 10 to 100 nM | 10 to 100 nM | – | – | COC(=O)c1c(-c2c(F)cccc2Cl)noc1-c1cnn(-c2cccc(N)c2)c1C(F)(F)F [IB-92, methyl 5-(1-(3-aminophenyl)-5-(trifluoromethyl)-1H-pyrazol-4-yl)-3-(2-chloro-6-fluorophenyl)isoxazole-4-carboxylate] | 10 to 100 nM | – |
| – | – | < 10 nM | < 10 nM | Cc1nnc(-c2c(-c3c(F)cccc3Cl)noc2-c2cnn(-c3cccc(Cl)c3)c2C(F)(F)F)o1 [Example B-4, 2-(3-(2-chloro-6-fluorophenyl)-5-(1-(3-chlorophenyl)-5-(trifluoromethyl)-1H-pyrazol-4-yl)isoxazol-4-yl)-5-methyl-1,3,4-oxadiazole] | – | < 10 nM |
| < 10 nM | < 10 nM | – | – | COC(=O)c1c(-c2ccccc2Cl)noc1-c1cnn(-c2cccc(Cl)c2)c1C(F)(F)F [IB-71, methyl 3-(2-chlorophenyl)-5-(1-(3-chlorophenyl)-5-(trifluoromethyl)-1H-pyrazol-4-yl)isoxazole-4-carboxylate] | < 10 nM | – |
| < 10 nM | < 10 nM | – | – | CSC(=O)c1c(-c2c(F)cccc2Cl)noc1-c1cnn(-c2cccnc2)c1C(F)(F)F [IB-68, S-methyl 3-(2-chloro-6-fluorophenyl)-5-(1-(pyridin-3-yl)-5-(trifluoromethyl)-1H-pyrazol-4-yl)isoxazole-4-carbothioate] | 10 to 100 nM | – |
| 100 to 1000 nM | 100 to 1000 nM | – | – | CNC(=O)c1c(-c2ccccc2Cl)noc1-c1cnn(-c2cccc(Cl)c2)c1C(F)(F)F [IB-63, 3-(2-chlorophenyl)-5-(1-(3-chlorophenyl)-5-(trifluoromethyl)-1H-pyrazol-4-yl)-N-methylisoxazole-4-carboxamide] | 100 to 1000 nM | – |
| 100 to 1000 nM | 100 to 1000 nM | – | – | CNC(=S)c1c(-c2c(F)cccc2Cl)noc1-c1cnn(-c2cccc(F)c2)c1C(F)(F)F [Example I-122, 3-(2-chloro-6-fluorophenyl)-5-(1-(3-fluorophenyl)-5-(trifluoromethyl)-1H-pyrazol-4-yl)-N-methylisoxazole-4-carbothioamide] | 100 to 1000 nM | – |
| 10 to 100 nM | 10 to 100 nM | – | – | CCOC(=O)c1c(-c2c(F)cccc2Cl)noc1-c1cnn(-c2cccc([N+](=O)[O-])c2)c1C(F)(F)F [IB-90, ethyl 3-(2-chloro-6-fluorophenyl)-5-(1-(3-nitrophenyl)-5-(trifluoromethyl)-1H-pyrazol-4-yl)isoxazole-4-carboxylate] | 10 to 100 nM | – |
| – | – | 1000 to 10000 nM | 1000 to 10000 nM | Fc1cccc(Cl)c1-c1noc(-c2cnn(-c3cccc(Cl)c3)c2C(F)(F)F)c1-c1nnn[nH]1 [Example 3, 3-(2-chloro-6-fluorophenyl)-5-(1-(3-chlorophenyl)-5-(trifluoromethyl)-1H-pyrazol-4-yl)-4-(1H-tetrazol-5-yl)isoxazole] | – | 1000 to 10000 nM |
| – | – | 1000 to 10000 nM | 100 to 1000 nM | COc1cccc(Cl)c1-c1noc(-c2cnn(-c3cccnc3)c2C(F)(F)F)c1-c1cnco1 [Example B-31, 3-(2-chloro-6-methoxyphenyl)-4-(oxazol-5-yl)-5-(1-(pyridin-3-yl)-5-(trifluoromethyl)-1H-pyrazol-4-yl)isoxazole] | – | 1000 to 10000 nM |
| 100 to 1000 nM | 100 to 1000 nM | – | – | CCOC(=O)c1c(-c2ccc(Cl)cc2Cl)noc1-c1cnn(-c2cccc(Cl)c2)c1C(F)(F)F [IB-46, ethyl 5-(1-(3-chlorophenyl)-5-(trifluoromethyl)-1H-pyrazol-4-yl)-3-(2,4-dichlorophenyl)-isoxazole-4-carboxylate] | 100 to 1000 nM | – |
| < 10 nM | < 10 nM | – | – | Fc1cccc(Cl)c1-c1noc(-c2cnn(-c3cccc(Cl)c3)c2C(F)(F)F)c1Br [Example I-140, 4-bromo-3-(2-chloro-6-fluorophenyl)-5-(1-(3-chlorophenyl)-5-(trifluoromethyl)-1H-pyrazol-4-yl)isoxazole] | 10 to 100 nM | – |
| – | – | < 10 nM | < 10 nM | Fc1cccc(Cl)c1-c1noc(-c2cnn(-c3cccc(Cl)c3)c2C(F)(F)F)c1-c1ccco1 [Example B-6, 3-(2-chloro-6-fluorophenyl)-5-(1-(3-chlorophenyl)-5-(trifluoromethyl)-1H-pyrazol-4-yl)-4-(furan-2-yl)isoxazole] | – | < 10 nM |
| 1000 to 10000 nM | 1000 to 10000 nM | – | – | O=C(c1c(-c2c(F)cccc2Cl)noc1-c1cnn(-c2ccccc2F)c1C(F)(F)F)N1CCCO1 [IB-52, (3-(2-chloro-6-fluorophenyl)-5-(1-(2-fluorophenyl)-5-(trifluoromethyl)-1H-pyrazol-4-yl)isoxazol-4-yl)(isoxazolidin-2-yl)methanone] | 1000 to 10000 nM | – |
| 1000 to 10000 nM | 100 to 1000 nM | – | – | COC(=O)c1c(-c2c(F)cccc2Cl)noc1-c1cnn(-c2ccc(C(C)(C)C)cc2)c1C(F)(F)F [Example I-81, methyl 5-(1-(4-tert-butylphenyl)-5-(trifluoromethyl)-1H-pyrazol-4-yl)-3-(2-chloro-6-fluorophenyl)isoxazole-4-carboxylate] | 1000 to 10000 nM | – |
| 100 to 1000 nM | 1000 to 10000 nM | – | – | CCOC(=O)c1c(-c2c(F)cccc2Cl)noc1-c1cnn(-c2cccc(S(N)(=O)=O)c2)c1C(F)(F)F [IB-43, ethyl 3-(2-chloro-6-fluorophenyl)-5-(1-(3-sulfamoylphenyl)-5-(trifluoromethyl)-1H-pyrazol-4-yl)-isoxazole-4-carboxylate] | 1000 to 10000 nM | – |
| 100 to 1000 nM | 100 to 1000 nM | – | – | COC(=O)c1c(-c2ccccc2F)noc1-c1cnn(-c2cccc(F)c2)c1C(F)(F)F [Example I-92, methyl 3-(2-fluorophenyl)-5-(1-(3-fluorophenyl)-5-(trifluoromethyl)-1H-pyrazol-4-yl)isoxazole-4-carboxylate] | 100 to 1000 nM | – |
| 100 to 1000 nM | 100 to 1000 nM | – | – | CNC(=O)c1c(-c2c(F)cccc2Cl)noc1-c1cnn(-c2ccccn2)c1C(F)(F)F [IB-93, 3-(2-chloro-6-fluorophenyl)-N-methyl-5-(1-(pyridin-2-yl)-5-(trifluoromethyl)-1H-pyrazol-4-yl)isoxazole-4-carboxamide] | 1000 to 10000 nM | – |
| 100 to 1000 nM | 10 to 100 nM | – | – | CO/C(=N\c1c(-c2c(F)cccc2Cl)noc1-c1cnn(-c2cccc(F)c2)c1C(F)(F)F)C(F)(F)F [Example I-136, (Z)-methyl N-(3-(2-chloro-6-fluorophenyl)-5-(1-(3-fluorophenyl)-5-(trifluoromethyl)-1H-pyrazol-4-yl)isoxazol-4-yl)-2,2,2-trifluoroacetimidate] | 100 to 1000 nM | – |
| 100 to 1000 nM | 100 to 1000 nM | – | – | COC(=O)c1c(-c2c(F)cccc2Cl)noc1-c1cnn(-c2c(F)c(F)cc(F)c2F)c1C(F)(F)F [Example I-47, methyl 3-(2-chloro-6-fluorophenyl)-5-(1-(2,3,5,6-tetrafluorophenyl)-5-(trifluoromethyl)-1H-pyrazol-4-yl)isoxale-4-carboxylate] | 100 to 1000 nM | – |
| < 10 nM | < 10 nM | – | – | CCOC(=O)c1c(-c2c(F)cccc2Cl)noc1-c1cnn(-c2cccc(C#N)c2)c1C(F)(F)F [IB-32, ethyl 3-(2-chloro-6-fluorophenyl)-5-(1-(3-cyanophenyl)-5-(trifluoromethyl)-1H-pyrazol-4-yl)isoxazole-4-carboxylate] | 10 to 100 nM | – |
| – | – | 100 to 1000 nM | < 10 nM | Fc1cccc(-n2ncc(-c3onc(-c4c(F)cccc4Cl)c3-c3ccsc3)c2C(F)(F)F)c1 [Example 16, 3-(2-chloro-6-fluorophenyl)-5-(1-(3-fluorophenyl)-5-(trifluoromethyl)-1H-pyrazol-4-yl)-4-(thiophen-3-yl)isoxazole] | – | < 10 nM |
| 100 to 1000 nM | 100 to 1000 nM | – | – | CN1CCN(C(=O)c2c(-c3c(F)cccc3Cl)noc2-c2cnn(-c3ccccc3F)c2C(F)(F)F)CC1 [Example I-17, (3-(2-chloro-6-fluorophenyl)-5-(1-(2-fluorophenyl)-5-(trifluoromethyl)-1H-pyrazol-4-yl)isoxazol-4-yl)(4-methylpiperazin-1-yl)methanone] | 1000 to 10000 nM | – |
| 1000 to 10000 nM | 1000 to 10000 nM | – | – | CC(=O)Nc1c(-c2c(F)cccc2Cl)noc1-c1cnn(-c2cccc(F)c2)c1C(F)(F)F [Example I-139, N-(3-(2-chloro-6-fluorophenyl)-5-(1-(3-fluorophenyl)-5-(trifluoromethyl)-1H-pyrazol-4-yl)isoxazol-4-yl)acetamide] | 1000 to 10000 nM | – |

| SMILES | IC50 [1, 4] | IC50 [3, 6] | IC50 [1, 7] | IC50 [3, 9] | IC50 [2, 5] | IC50 [2, 8] |
| --- | --- | --- | --- | --- | --- | --- |
| CC(=O)Nc1cccc(-n2ncc(-c3onc(-c4c(F)cccc4Cl)c3-c3nnc(C)s3)c2C(F)(F)F)c1 [Example B-12, N-(3-(4-(3-(2-chloro-6-fluorophenyl)-4-(5-methyl-1,3,4-thiadiazol-2-yl)isoxazol-5-yl)-5-(trifluoromethyl)-1H-pyrazol-1-yl)phenyl)acetamide] | – | – | 1000 to 10000 nM | 100 to 1000 nM | – | 1000 to 10000 nM |
